In patent publication US12594276B2, “Inhibitors of human immunodeficiency virus replication” (ViiV Healthcare UK (No.5) Limited, priority 2024, dated 2026):

How the values were obtained:
[1] = Compound cytotoxicity, XTT-based colorimetric assay; type: cell-based; conditions: human; uninfected MT2 cells, day 4, XTT; read-out: CC50
Outline: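 Uninfected MT2 cells were treated with compound under the same protocol as the antiviral assay. Viability was read on day 4 with an XTT colorimetric assay, from which CC50 values were derived.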

[2] = test system: recombinant NL4-3 virus (nef section replaced with Renilla luciferase gene) in MT-2 cells; assay: HIV cell culture assay (antiviral activity, luciferase readout); type: cell-based; conditions: Renilla, NL43, MT-2 cells infected for 4-5 days with recombinant NL4-3 Renilla luciferase virus
Outline: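 Antiviral EC50 derived from luciferase signal using the exponential median effect equation. Infection of MT-2 cells ran 4-5 days alongside serial dilutions of compound, with virus generated by proviral clone transfection of 293T cells.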

| Structure (SMILES) | CC50 at 4 days [1] [nM] | EC50 [2] [nM] |
| --- | --- | --- |
| Cc1cc(C2CCC(F)(F)CC2)nc2nc([C@H](Cc3cc(F)cc(F)c3)NC(=O)Cn3nc(C(F)F)c4c3C(F)(F)[C@@H]3C[C@H]43)n(-c3ccc(Cl)c4c(NS(C)(=O)=O)nn(CCN5CCCC(F)(F)CC5)c34)c(=O)c12 (atropisomer, axis not shown; (P)) [Example 15, N-[(1S)-1-[(3P)-3-{4-chloro-1-[2-(4,4-difluoroazepan-1-yl)ethyl]-3-methanesulfonamido-1H-indazol-7-yl}-7-(4,4-difluorocyclohexyl)-5-methyl-4-oxo-3H,4H-pyrido[2,3-d]pyrimidin-2-yl]-2-(3,5-difluorophenyl)ethyl]-2-[(2S,4R)-9-(difluoromethyl)-5,5-difluoro-7,8-diazatricyclo[4.3.0.0^2,^4]nona-1(6),8-dien-7-yl]acetamide] | > 50 | 0.01 |
| COCCNc1cc(C2CCC(F)(F)CC2)nc2nc([C@H](Cc3cc(F)cc(F)c3)NC(=O)Cn3nc(C(F)F)c4c3C(F)(F)[C@@H]3C[C@H]43)n(-c3ccc(Cl)c4c(NS(C)(=O)=O)nn(CCN5CCCC(F)(F)C5)c34)c(=O)c12 (atropisomer, axis not shown; (P)) [Example 416, N-[(1S)-1-[(3P)-3-{4-chloro-1-[2-(3,3-difluoropiperidin-1-yl)ethyl]-3-methanesulfonamido-1H-indazol-7-yl}-7-(4,4-difluorocyclohexyl)-5-[(2-methoxyethyl)amino]-4-oxo-3H,4H-pyrido[2,3-d]pyrimidin-2-yl]-2-(3,5-difluorophenyl)ethyl]-2-[(2S,4R)-9-(difluoromethyl)-5,5-difluoro-7,8-diazatricyclo[4.3.0.0^2,^4]nona-1(6),8-dien-7-yl]acetamide] | > 20 | 0.012 |
| COCCn1nc(NS(C)(=O)=O)c2c(Cl)ccc(-n3c([C@H](Cc4cc(F)cc(F)c4)NC(=O)Cn4nc(C(F)F)c5c4C(F)(F)[C@@H]4C[C@H]54)nc4nc(C5CCC(F)(F)CC5)cc(C)c4c3=O)c21 (atropisomer, axis not shown; (P)) [Example 84, N-[(1S)-1-[(3P)-3-[4-chloro-3-methanesulfonamido-1-(2-methoxyethyl)-1H-indazol-7-yl]-7-(4,4-difluorocyclohexyl)-5-methyl-4-oxo-3H,4H-pyrido[2,3-d]pyrimidin-2-yl]-2-(3,5-difluorophenyl)ethyl]-2-[(2S,4R)-9-(difluoromethyl)-5,5-difluoro-7,8-diazatricyclo[4.3.0.0^2,^4]nona-1(6),8-dien-7-yl]acetamide] | > 50 | 0.016 |
| CS(=O)(=O)Nc1nn(CCN2CCOC(C(F)F)C2)c2c(-n3c([C@H](Cc4cc(F)cc(F)c4)NC(=O)Cn4nc(C(F)F)c5c4C(F)(F)[C@@H]4C[C@H]54)nc4nc(C5CCC(F)(F)CC5)ccc4c3=O)ccc(Cl)c12 (stereo partly drawn) [Example 187, N-[(1S)-1-[(3P)-3-(4-chloro-1-{2-[2-(difluoromethyl)morpholin-4-yl]ethyl}-3-methanesulfonamido-1H-indazol-7-yl)-7-(4,4-difluorocyclohexyl)-4-oxo-3H,4H-pyrido[2,3-d]pyrimidin-2-yl]-2-(3,5-difluorophenyl)ethyl]-2-[(2S,4R)-9-(difluoromethyl)-5,5-difluoro-7,8-diazatricyclo[4.3.0.0^2,4]nona-1(6),8-dien-7-yl]acetamide] | > 50 | 0.032 |
| COCCCn1nc(NS(C)(=O)=O)c2c(Cl)ccc(-n3c([C@H](Cc4cc(F)cc(F)c4)NC(=O)Cn4nc(C(F)F)c5c4C(F)(F)[C@@H]4C[C@H]54)nc4nc(C5CCC(F)(F)CC5)cc(NCCN5C[C@H](F)C[C@H](F)C5)c4c3=O)c21 (atropisomer, axis not shown; (P)) [Example 509, N-[(1S)-1-[(3P)-3-[4-chloro-3-methanesulfonamido-1-(3-methoxypropyl)-1H-indazol-7-yl]-7-(4,4-difluorocyclohexyl)-5-({2-[(3R,5S)-3,5-difluoropiperidin-1-yl]ethyl}amino)-4-oxo-3H,4H-pyrido[2,3-d]pyrimidin-2-yl]-2-(3,5-difluorophenyl)ethyl]-2-[(2S,4R)-9-(difluoromethyl)-5,5-difluoro-7,8-diazatricyclo[4.3.0.0^2,^4]nona-1(6),8-dien-7-yl]acetamide] | > 20 | 0.006 |
| CCc1cc(C2CCC(F)(F)CC2)nc2nc([C@H](Cc3cc(F)cc(F)c3)NC(=O)Cn3nc(C(F)F)c4c3C[C@H]3C[C@@H]43)n(-c3ccc(Cl)c4c(NS(C)(=O)=O)nn(CCCOC)c34)c(=O)c12 (relative stereo) [Example 643, N-[(1S)-1-[(3P)-3-[4-chloro-3-methanesulfonamido-1-(3-methoxypropyl)-1H-indazol-7-yl]-7-(4,4-difluorocyclohexyl)-5-ethyl-4-oxo-3H,4H-pyrido[2,3-d]pyrimidin-2-yl]-2-(3,5-difluorophenyl)ethyl]-2-[(2R*,4R*)-9-(difluoromethyl)-7,8-diazatricyclo[4.3.0.0^2,^4]nona-1(6),8-dien-7-yl]acetamide] | > 50 | 0.017 |
| COCCCn1nc(NS(C)(=O)=O)c2c(Cl)ccc(-n3c([C@H](Cc4cc(F)cc(F)c4)NC(=O)Cn4nc(C(F)F)c5c4C(F)(F)[C@@H]4C[C@H]54)nc4nc(C5CCC(F)(F)CC5)cc(NC[C@@H]5CCOC5)c4c3=O)c21 (atropisomer, axis not shown; (P)) [Example 568, N-[(1S)-1-[(3P)-3-[4-chloro-3-methanesulfonamido-1-(3-methoxypropyl)-1H-indazol-7-yl]-7-(4,4-difluorocyclohexyl)-4-oxo-5-({[(3S)-oxolan-3-yl]methyl}amino)-3H,4H-pyrido[2,3-d]pyrimidin-2-yl]-2-(3,5-difluorophenyl)ethyl]-2-[(2S,4R)-9-(difluoromethyl)-5,5-difluoro-7,8-diazatricyclo[4.3.0.0^2,^4]nona-1(6),8-dien-7-yl]acetamide] | > 20 | 0.01 |
| CC1(F)CCN(CCn2nc(NS(C)(=O)=O)c3c(Cl)ccc(-n4c([C@H](Cc5cc(F)cc(F)c5)NC(=O)Cn5nc(C(F)F)c6c5C(F)(F)[C@@H]5C[C@H]65)nc5nc(C6CCC(F)(F)CC6)ccc5c4=O)c32)CC1 (atropisomer, axis not shown; (P)) [Example 167, N-[(1S)-1-[(3P)-3-{4-chloro-1-[2-(4-fluoro-4-methylpiperidin-1-yl)ethyl]-3-methanesulfonamido-1H-indazol-7-yl}-7-(4,4-difluorocyclohexyl)-4-oxo-3H,4H-pyrido[2,3-d]pyrimidin-2-yl]-2-(3,5-difluorophenyl)ethyl]-2-[(2S,4R)-9-(difluoromethyl)-5,5-difluoro-7,8-diazatricyclo[4.3.0.0^2,^4]nona-1(6),8-dien-7-yl]acetamide] | > 50 | 0.024 |
| Cc1cc(C2CCC(F)(F)CC2)nc2nc([C@H](Cc3cc(F)cc(F)c3)NC(=O)Cn3nc(C(F)F)c4c3C(F)(F)[C@@H]3C[C@H]43)n(-c3ccc(Cl)c4c(NS(C)(=O)=O)nn(CCN5CCC(F)(F)C5)c34)c(=O)c12 (atropisomer, axis not shown; (P)) [Example 231, N-[(1S)-1-[(3P)-3-{4-chloro-1-[2-(3,3-difluoropyrrolidin-1-yl)ethyl]-3-methanesulfonamido-1H-indazol-7-yl}-7-(4,4-difluorocyclohexyl)-5-methyl-4-oxo-3H,4H-pyrido[2,3-d]pyrimidin-2-yl]-2-(3,5-difluorophenyl)ethyl]-2-[(2S,4R)-9-(difluoromethyl)-5,5-difluoro-7,8-diazatricyclo[4.3.0.0^2,^4]nona-1(6),8-dien-7-yl]acetamide] | > 50 | 0.01 |
| Cc1cc(C2(F)CCC(F)(F)CC2)nc2nc([C@H](Cc3cc(F)cc(F)c3)NC(=O)Cn3nc(C4CC4)c4c3C[C@@H]3C[C@H]43)n(-c3ccc(Cl)c4c(NS(C)(=O)=O)nn(C[C@H](C)N5C[C@@H](C)O[C@@H](C)C5)c34)c(=O)c12 (relative stereo) [Example 722, N-[(1S)-1-[(3P)-3-{4-chloro-1-[(2S)-2-[(2R,6S)-2,6-dimethylmorpholin-4-yl]propyl]-3-methanesulfonamido-1H-indazol-7-yl}-5-methyl-4-oxo-7-(1,4,4-trifluorocyclohexyl)-3H,4H-pyrido[2,3-d]pyrimidin-2-yl]-2-(3,5-difluorophenyl)ethyl]-2-[(2R*,4R*)-9-cyclopropyl-7,8-diazatricyclo[4.3.0.0^2,^4]nona-1(6),8-dien-7-yl]acetamide] | > 20 | 0.007 |
| Cc1cc(C2CCC(F)(F)CC2)nc2nc([C@H](Cc3cc(F)cc(F)c3)NC(=O)Cn3nc(C4CC4)c4c3C[C@@H]3C[C@H]43)n(-c3ccc(Cl)c4c(NS(C)(=O)=O)nn(CCN5CC6(CCC6)OC6(CCC6)C5)c34)c(=O)c12 (atropisomer, axis not shown; (P)) [Example 445, N-[(1S)-1-[(3P)-3-[4-chloro-3-methanesulfonamido-1-(2-{5-oxa-11-azadispiro[3.1.3^6.3^4]dodecan-11-yl}ethyl)-1H-indazol-7-yl]-7-(4,4-difluorocyclohexyl)-5-methyl-4-oxo-3H,4H-pyrido[2,3-d]pyrimidin-2-yl]-2-(3,5-difluorophenyl)ethyl]-2-[(2S,4S)-9-cyclopropyl-7,8-diazatricyclo[4.3.0.0^2,^4]nona-1(6),8-dien-7-yl]acetamide] | > 20 | 0.015 |
